Measurements published in patent US10889611B2, “Sialyltransferase inhibitors and uses thereof” (Academia Sinica, priority 2015, dated 2021).
Read-outs that look alike come from different tables or passages of the source. Marks after values point to notes of the source that are not given here.

Legend:
[1] = system: primary melanoma cells (B16-F10/Luc cells); experiment: Primary melanoma-bearing C57BL mice; format: in vivo
Description: (§1) Six C57BL mice (3-6 weeks old) were subcutaneously or intravenously injected with 5×10^5 primary melanoma cells (i.e., B16-F10/Luc cells) on day 0 and allowed the tumor to grow for 7 days to create primary or metastatic melanoma model. Then, the test compound (e.g., FCW393, 10 mg/Kg, i.p.) was administered by intraperitoneal injection at the interval of 3 times per week, until day 26 in each animal model. Tumor sizes were measured using calipers at designated days, and tumor volume was calculated using the formula: volume=width^2×length×0.52. The average body weight (BW) of the animals was measured daily, and the concentration of the test compound(s) (i.e., FCW393) in i.p. injection was adjusted proportionally to the BW respectively at the indicated dosage and time. After treatment, mice were sacrified and their white blood cells (WBC), red blood cells (RBC), platelets (PLT), hemoglobin (HGB), hematocrit (HCT), mean corpuscular volume (MCV), mean corpuscular hemoglobin (MCH), and mean corpuscular hemoglobin concentration (MCHC) were respectively determined; their weights of lymph nodes, thymus, and spleen were measured; as well as the levels of aspartate aminotransferase (AST), analine aminotransferase (ALT), albumin, triglyceride, blood urea nitrogen (BUN), creatinine, and uric acid were measured.
In this example, effects of FCW393 (or compound 16) on animals implanted with primary melanoma cells were investigated, in which the body weight; the size of the tumor; the respective weights of lymph nodes, thymus, and spleen; the respective functions of liver, kidney, and vascular system; as well as the levels of inflammation and/or stress markers were determined. Results are illustrated in FIGS. 8-15.

[2] = system: metastatic melanoma (B16-F10/Luc cells); experiment: Metastatic melanoma-bearing C57BL mice; format: in vivo
Description: as §1

[3] = biological target: T1, α2,6(N)-sialyltransferases ST6GALI (Homo sapiens, UniProt P15907); experiment: Sialyltransferase inhibition assay, ST6GALI (reverse-phase HPLC); format: biochemical; conditions: for IC50: α2,6-N-link
T1 construct: purchased RnDSystems.com (R&D Systems)
T1 sequence (P15907 1-406): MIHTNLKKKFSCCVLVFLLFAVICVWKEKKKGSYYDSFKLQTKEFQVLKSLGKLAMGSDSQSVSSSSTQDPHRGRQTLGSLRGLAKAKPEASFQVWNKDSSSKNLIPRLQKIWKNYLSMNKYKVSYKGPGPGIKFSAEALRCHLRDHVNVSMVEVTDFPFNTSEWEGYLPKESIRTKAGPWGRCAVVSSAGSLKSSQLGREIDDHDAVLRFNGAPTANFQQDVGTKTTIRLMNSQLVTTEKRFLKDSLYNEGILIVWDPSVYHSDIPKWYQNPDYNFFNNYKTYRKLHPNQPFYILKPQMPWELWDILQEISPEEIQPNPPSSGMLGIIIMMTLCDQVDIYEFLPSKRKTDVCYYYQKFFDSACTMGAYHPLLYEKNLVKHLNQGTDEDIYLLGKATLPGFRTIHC
Description: (§2) The enzymes analyzed in the present study included rat ST3Gal(I), rat ST3Gal(III), and human ST6Gal(I). Rat ST3Gal(I) and rat ST3Gal(Ill), were purchased from Calbiochem®, while human ST6Gal(I) was purchased from RnDSystems.com.
(§3) Sialyltransferase inhibition assay (α2,6-N-ST) was performed as follows: Sialyltransferase activity was determined by measuring the level of the end product of sialylated saccharides with reverse-phase HPLC. The assay mixtures contained the following components: 200 mM MES buffer; 100 mM NaCl; 0.5 mM EDTA; 0.01% Triton X-100; 1.4 mU ST6GALI; 25 μM Galβ1-4GlcNAc; 1 mM CMP-Neu5Ac and different concentration of Sialyltransferase inhibitors to a total volume of 50 μl. The assay mixture was incubated at 37° C. for 15 mins and then quenched by heating up to 101° C. for 10 mins. The sialylated product is resolved with reversed-phase HPLC. Kinetic data were obtained by fitting the initial rate data to the nonlinear regression equation.
(§4) Effects of the present compounds on the activity of sialyltransferase, including α2,3(N)-sialyltransferase ST3GALIII, α2,6(N)-sialyltransferases ST6GALI, and α2,3(O)-sialyltransferase ST3GALI, were determined in accordance with procedures described in the “Materials and Methods” section, and results are summarized in Table 1.

[4] = biological target: T2, α2,3(N)-sialyltransferase ST3GALIII (Rattus norvegicus, UniProt Q02734); experiment: Sialyltransferase activity assay, ST3GALIII; format: biochemical
T2 construct: purchased Calbiochem
T2 sequence (Q02734 1-374): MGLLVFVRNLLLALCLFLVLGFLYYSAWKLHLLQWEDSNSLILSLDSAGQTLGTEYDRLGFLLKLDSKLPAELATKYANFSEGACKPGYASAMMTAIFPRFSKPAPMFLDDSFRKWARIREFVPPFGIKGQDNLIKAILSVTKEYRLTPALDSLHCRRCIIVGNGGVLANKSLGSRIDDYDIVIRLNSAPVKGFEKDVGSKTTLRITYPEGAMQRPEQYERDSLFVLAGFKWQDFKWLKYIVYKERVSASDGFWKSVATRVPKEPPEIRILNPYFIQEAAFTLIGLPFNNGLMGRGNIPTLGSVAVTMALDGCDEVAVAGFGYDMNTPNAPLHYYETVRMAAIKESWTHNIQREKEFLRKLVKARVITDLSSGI
Description: as §2
as §3, with “mU ST3GALI; 2.5 mM T-antigen;” for “mU ST6GALI; 25 μM Galβ1-4GlcNAc;”, “to 101′C” for “to 101° C.”, “product was” for “product is”, “resolved by” for “resolved with”
as §3, §4

[5] = biological target: T3, α2,3(O)-sialyltransferase ST3GALI (Rattus norvegicus, UniProt Q6H8N0); experiment: Sialyltransferase inhibition assay, ST3GALI (reverse-phase HPLC); format: biochemical; conditions: for inhibition at 500 µM: measured at 500 μM
T3 construct: purchased Calbiochem
T3 sequence (Q6H8N0 1-340): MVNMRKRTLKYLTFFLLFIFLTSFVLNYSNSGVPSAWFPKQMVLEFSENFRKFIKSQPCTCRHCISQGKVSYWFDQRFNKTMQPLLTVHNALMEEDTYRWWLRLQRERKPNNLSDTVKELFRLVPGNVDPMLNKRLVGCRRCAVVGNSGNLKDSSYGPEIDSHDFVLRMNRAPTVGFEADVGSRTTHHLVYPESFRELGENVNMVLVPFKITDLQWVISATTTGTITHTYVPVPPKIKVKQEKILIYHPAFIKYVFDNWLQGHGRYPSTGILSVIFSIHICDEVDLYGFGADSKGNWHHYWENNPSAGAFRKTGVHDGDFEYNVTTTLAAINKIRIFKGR
Description: as §2
as §3, with “mU ST3GALI; 2.5 mM T-antigen;” for “mU ST6GALI; 25 μM Galβ1-4GlcNAc;”, “to 101′C” for “to 101° C.”, “product was” for “product is”, “resolved by” for “resolved with”
as §4

[6] = biological target: T2, α2,3(N)-sialyltransferase ST3GALIII; experiment: Sialyltransferase activity assay, ST3GALIII; format: biochemical; conditions: α2,3-N-link
[7] = system: MDA-MB-231 cells; experiment: Transwell migration assay, breast cancer cells; format: cell-based, human
Excerpt: Migration assays were done using a transwell, in which a polycarbonate filter pre-coated with Matrigel (8-μm pores, Millicell; Millipore, Billerica, Mass.) was inserted therein. […] Cells that had migrated to the underside of the inserted filter were stained with hematoxylin solution. The cells in the upper side of the inserted membrane were rubbed with a cotton swab. The migrated cells on the underside were pictured in a 200× magnification field and quantified.

[8] = read-out: ST3GALI inhibition percentage

## C[C@H](CCC(=O)OCCOCCOCCN=[N+]=[N-])C1CCC2C3CC[C@@H]4C[C@H](NC(=O)[C@H](CC(=O)O)Nc5ccc([N+](=O)[O-])c6nonc56)CC[C@]4(C)C3CC[C@@]21C (stereo partly drawn) [Compound 16, (3S)-4-(((3R,5R,10S,13R)-17-((R)-5-(2-(2-(2-azidoethoxy)ethoxy)ethoxy)-5-oxopentan-2-yl)-10,13-dimethylhexadecahydro-1H-cyclopenta[a]phenanthren-3-yl)amino)-3-((7-nitrobenzo[c][1,2,5]oxadiazol-4-yl)amino)-4-oxobutanoic acid]
other
  melting point: 80 to 81 °C
[1]; 10 mg/Kg, i.p.
  body weights of the test animals: without significantly affecting
[1]; 10 mg/Kg, i.p., 3 times per week
  tumor volume as compared with that of the control animal: about 1/3
[1]; FIG. 9
  weight of lymph node, thymus, or spleen: no effects
[1]; FIG. 10, panel A
  counts of white blood cells (WBC), increase: 2 fold
[1]; FIG. 10, panels B to H
  levels of RBC, PLT, HGB, HCT, MCV, MCH and MCHC: no effects
[1]; FIG. 11
  level of analine aminotransferase (ALT): did not affect
  level of aspartate aminotransferase (AST): reduce
[1]; FIG. 11, panel C
  level of inflammation marker (albumin): no effect
[1]; FIG. 11, panel G
  level of the stress marker (uric acid): slightly increased
[2]; FIG. 13
  weight of lymph node, thymus, or spleen: did not affect
[2]; FIG. 14
  levels of WBC, RBC, platelets, HGB, HCT, MCV, MCH, and MCHC: nor did it possess any significant effects
[2]; FIG. 15
  level of inflammation marker or stress marker: did not affect
[2]; days 7 and 14, FIG. 12, panels A and B
  growth of tumor (bioluminescence IVIS images): suppress the growth of tumor

## C[C@H](CCC(=O)OCCOCCOCCOCCOCCN=[N+]=[N-])C1CC[C@H]2[C@@H]3CC[C@@H]4C[C@H](OC(=O)[C@H](CC(=O)O)Nc5ccc([N+](=O)[O-])c6nonc56)CC[C@]4(C)[C@H]3CC[C@]12C (stereo partly drawn) [Compound 5, (3S)-4-(((3R,5R,8R,9S,10S,13R,14S)-17-((R)-1-azido-16-oxo-3,6,9,12,15-pentaoxaicosan-19-yl)-10,13-dimethylhexadecahydro-1H-cyclopenta[a]phenanthren-3-yl)oxy)-3-((7-nitrobenzo[c][1,2,5]oxadiazol-4-yl)amino)-4-oxobutanoic acid]
[3]
  selectivity ratio ST3GALI/ST6GALI: >99
[3]; IC50 (μM) ST6GALI
  IC50: 5.03 ± 0.2 µM
[4]; calculated based on the concentration, 500 μM, of ST inhibitor used toward α2,3-O-ST3GALI
  selectivity ratio ST3GALI/ST3GALIII: >516^d
[5]; [8]
  inhibition at 500 µM: 0%
[6]; IC50 (μM) ST3GALIII
  IC50: 0.97 ± 0.14 µM

## C[C@H](CCC(=O)O)[C@H]1CC[C@H]2[C@@H]3CC[C@@H]4C[C@H](OC(=O)[C@@H](N)CC(=O)O)CC[C@]4(C)[C@H]3CC[C@]12C [Lith-O-Asp, reference compound]
[3]
  selectivity ratio ST3GALI/ST6GALI: 3
[3]; read-out: IC50 (μM) ST6GALI
  IC50: 15.78 ± 0.13 µM
[4]; comparative controls with measured ST3GALI IC50
  selectivity ratio ST3GALI/ST3GALIII: 3
[5]; α2,3-O-link
  IC50: 39 ± 1.26 µM
[6]; read-out: IC50 (μM) ST3GALIII
  IC50: 12 µM

## C[C@H](CCC(=O)OCCOCCOCCOCCN=[N+]=[N-])C1CC[C@H]2[C@@H]3CC[C@@H]4C[C@H](OC(=O)[C@H](CC(=O)O)Nc5ccc([N+](=O)[O-])c6nonc56)CC[C@]4(C)[C@H]3CC[C@]12C (stereo partly drawn) [Compound 4, (3S)-4-(((3R,5R,8R,9S,10S,13R,14S)-17-((R)-1-azido-13-oxo-3,6,9,12-tetraoxaheptadecan-6-yl)-10,13-dimethylhexadecahydro-1H-cyclopenta[a]phenanthren-3-yl)oxy)-3-((7-nitrobenzo[c][1,2,5]oxadiazol-4-yl)amino)-4-oxobutanoic acid]
[3]
  selectivity ratio ST3GALI/ST6GALI: >102
[3]; IC50 (μM) ST6GALI
  IC50: 4.9 ± 0.08 µM
[4]; calculated based on the concentration, 500 μM, of ST inhibitor used toward α2,3-O-ST3GALI, listed as 4 (FCW66)
  selectivity ratio ST3GALI/ST3GALIII: >495^d
[4]; calculated based on the concentration, 1 mM, of ST inhibitor used toward α2,3-O-ST3GALI, listed as 4 (FCW66)
  selectivity ratio ST3GALI/ST3GALIII: (≤990)^e
[7]; 20 μM, FIG. 1
  migration of MDA-MD-231 cells: inhibited the migration
[7]; Homo sapiens, MDA-MB-231, breast cancer cells treated with 2-30 μM, transwell, 16 hours, read-out: IC50 on migration
  IC50: 12 ± 0.13 µM
[5]; [8]
  inhibition at 500 µM: 0%
[5]; measured at 1 mM, read-out: ST3GALI inhibition percentage
  inhibition at 1000 µM: 50%
[6]; IC50 (μM) ST3GALIII
  IC50: 1.01 ± 0.07 µM
